The values that follow come from patent US10942107B2, “Methods of screening for mild skin cleanser” (The Procter & Gamble Company, priority 2017, dated 2021).

The conditions of series [1]: known in the art; cited from earlier work.
A further series has as its system skin. The series is described as follows: Surfactant skin penetration at 5 depths after forearm controlled application technique (FCAT), liquid chromatography and mass spectrometry. In kind it is in vivo. The text has this: One way to test the potential mildness of a surfactant is by looking at how it interacts with the skin. One type of interaction with the skin is skin penetration. Skin penetration looks at how much of the surfactant will penetrate into the skin. It is believed that the more the surfactant penetrates into the skin, the less mild the composition. Originally, this was believed to be largely driven by the structure of the surfactant, itself. Now, it is believed that the phase behavior associated with the surfactant can also have an impact on the penetration of the surfactant, and thus, its mildness. One surfactant reviewed for mildness is sodium trideceth-2 sulfate. […] In FIG. 1, the lighter gray (left hand column) is sodium trideceth-2 sulfate deposited on skin in a vesicle form, specifically a lamellar form as part of Composition F (below), while the darker gray (right hand column) is sodium trideceth-2 sulfate deposited in a micellar form as part of Composition E (below). The compositions were applied in accordance with a forearm controlled application technique (FCAT), a description of which is found in Ertel et al., “A forearm controlled application technique for estimating the relative mildness of personal cleansing products,” J. Soc. Cosmet. […] The levels of the target materials on the skin are then measured with a combination of liquid chromatography and mass spectrometry.

cocamide monoethanolamine: the HLB value in series [1] is listed as 16.8. On to cocamidopropyl betaine, for which, in the series with skin (in vivo), the “penetration of the surfactant into skin (concentration at depth 01 to depth 05)” value is listed as “A similar result was seen”. Turning to sodium trideceth-2 sulfate, the “penetration of the surfactant into skin (concentration at depth 01 to depth 05)” value in the series on skin (deposited from micellar composition (Composition E) versus lamellar composition (Composition F), FCAT, FIGS. 1-3) was “penetrates the skin at a greater concentration at all 5 depths measured”.
